From patent US20150119251A1, “AGRICULTURAL PLANT-PROTECTING AGENTS CONTAINING DIPEPTIDE DERIVATIVE AS ACTIVE INGREDIENT” (REPUBLIC OF KOREA (RURAL DEVELOPMENT ADMINISTRATION), priority 2012, published 2015)
Square brackets hold non-standard residues; d marks the D form. Peptide text beside a SMILES is read from it. * marks the point of attachment. Trt = c1ccc(C(c2ccccc2)(c2ccccc2)*)cc1; Boc = CC(C)(C)OC(=O)*

Assays:
[1] = tested on: pepper phytophthora blight (Phytopthora capsici); assay: Suppression of pepper phytophthora blight on leaves; assay type: in vivo; conditions: 0.1 mM
[2] = tested on: GUS gene induced by PR-1α disease-resistance promoter; assay: PR-1a GUS activation on tobacco leaves (MUG fluorescence); assay type: in vivo, tobacco (Xanth-nc); conditions: tobacco leaf injection, after three days
Procedure: After the tobacco (Xanth-nc) bound with GUS gene induced by PR-1α disease-resistance promoter was grown for 3 weeks, 100 μL of the diluted solution of Compound 74 was injected to second leaves with a syringe. After three days, the surrounding leaves were collected in an internal diameter size of 5 mm with a cork borer, the samples thus obtained were added to a 1.5 mL of an eppendorf tube, and 20 μL of GUS extraction buffer solution was further added, ground, and then centrifuged at 8000 G for 3 minutes to obtain supernatant. The same amount of 2 mM MUG (4-methyl umbellifryl-B-glucuronide) solution was added, reacted at 37° C. for 1 hour, and then 960 μL of stop buffer solution (0.2 M, Na2CO3 solution) was added to be 1 mL. Since then, the fluorescence was measured with a TKO 100 fluorometer (Hoefoer Scientific Instruments, USA). At this time, the fluorescence amount was calibrated using a MU (4-methyl umbellyferon) as a standard reagent, and the GUS activity was calculated using MU-mM/sample−10 mg/time. The results thus obtained are listed in the following Table 2 and illustrated in FIG. 2.

[3] = tested on: tobacco bacterial rot (Pectobacterium carotovorum); assay: Suppression of tobacco bacterial rot; assay type: in vivo, Pectobacterium carotovorum SCC1
Outline: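 Test compounds at 1, 10 and 100 ppm (from 20% methanol stock) were applied to tobacco leaves; 7 days later plants were sprayed with Pectobacterium carotovorum SCC1 at 10^8 cfu/mL and kept 3 days at 30° C. Lesion area scored visually as 0–100%.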

[4] = tested on: anthracnose germ (Colletotrichum orbiculare); assay: Suppression of anthracnose on cucumber leaves by seed treatment; assay type: in vivo; conditions: seeds treated at 100 ppm for 2 hours, spores sprayed after 3 weeks, read after 7 days, FIG. 4
Procedure: Compound 61 or Compound 74 were deposited on the seeds of cucumbers in the concentration of 100 ppm for 2 hours, and after 3 weeks, the spores of anthracnose germ (Colletotrichum orbiculare) were sprayed in the concentration of 10^5 spore/mL thereto, and then, after 7 days, the disease outbreak was investigated. The results thus obtained are illustrated in the photographs of FIG. 4.

[5] = tested on: PR1, PR4, PR10, beta-1,3-glucanase, chitinase and peroxidase genes; assay: Expression of defense genes in pepper plant (RT-PCR) after compound treatment and pathogen inoculation; assay type: in vivo; conditions: pepper seedling, compound treated and then P. carotovora or P. capsici treated, FIG. 1
Description: In order to testify the disease resistance expression in the case of treating the dipeptide derivative of the present invention to the seeding of pepper, PR-1, beta-1,3-glucanase, chitinase, PR4, peroxidase, and PR10 primer, and the seedling of pepper were used. The seedling of pepper was raised in a greenhouse for 4 weeks, Compounds were sprayed thereto in various concentrations, and then, after three or one week, phytophthora (Phytophthora capcisi) and the pathogen of a bacterial rot (Pectobacterium carotovorum) were respectively inoculated.
Since then, after 12, 24, and 48 hours, the respective pepper leaves were collected in an amount of 1 g, and then, stored at an ultralow temperature-room at […]. The stored plant leaves were pulverized along with liquid nitrogen, and then, […] was extracted by using a RNA extraction kit (Easy-Spin™IIP Total RNA Extraction Kit, Intron Biotechnology, Korea) and Ex Taq polymerase by Kishimoto et al. (2005) (Takara Biomedicals, Otsu, Japan). For amplification, 0.1 μg of cDNA, 10 pMol of each of forward and reverse primers, 250 nM of dNTPs, and 0.5 U of Ex Taq polymerase were added to 20 μl, of a buffer solution. PCR was performed at 94C and 58C in a thermal cycler (PTC-100, USA), and the products by PCR were analyzed under the condition of 1% agarose gel (in 0.5×TAE buffer) (80 V, 60 min). All the RT-PCR tests were repeated twice. […]

[6] = tested on: pepper phytophthora blight (Phytopthora capsici); assay: Suppression of pepper phytophthora blight on leaves; assay type: in vivo; conditions: for Lesion outbreak rate: pepper leaves
Procedure: (§1) The peppers were raised in the same method as Example 3, and then, the test compounds were dissolved in 20% methanol to make a stock solution, and a stock was diluted to the concentrations of 0.1, 1.0, and 10.0 ppm. The test solutions were sprayed on the leaves or drench-treated on the leaves. After 7 days, the pathogen of plant bacterial rot (Pectobacterium carotovorum SCC1) was cultured in a TSA medium for 27 hours, and then, wetted on an 8 mm diameter paper disc in the concentration of 10^8 cfu/mL. The paper disc was located in the center of the leaves that were cut roundly, and then, after about 7 days, the lesion area was measured. In the case of phytophthora, the potato agar medium cultured with the phytophthora (Phytophthora capsici) was cut in the internal diameter size of 5 mm with a cork borer, and then inoculated to the leaves. After 7 days, the lesion area was observed. In the case of a bacterial rot, when Compounds 6, 89, 93, and 95 were sprayed on the pepper leaves, the bacterial rot was not found in the concentration of 1 or 10 ppm as compared with the non-treated group. […] The Suppression of lesion formation on the leaves when these compounds were drench-treated to the roots can be explained as it was resulted from that systemic disease resistance was induced in the whole plant. These test results are illustrated in the photographs of FIGS. 5 to 9.

Phytophthora capsici = assay: Suppression of phytophthora blight in pepper roots and leaves after drench inoculation; assay type: in vivo; conditions: sprayed on leaves, roots drench-inoculated after 1 week, observed 7 days, FIG. 10
Description: The peppers were raised in the same method as Example 3, Compound 85 was sprayed on the leaves, and then after 1 week, the Phytophthora capsici swarm suspension was drench-inoculated. While observing for 7 days, the lesion formation on the leaves and roots were investigated. […] The test results of Compound 85 on suppressing the outbreak of phytophthora blight are illustrated in FIG. 10.

[7] = tested on: plant bacterial rot (Pectobacterium carotovorum SCC1); assay: Suppression of bacterial rot on pepper leaves (paper disc on cut leaves); assay type: in vivo; conditions: sprayed on the pepper leaves, 1 or 10 ppm
Procedure: as §1

| Compound | Lesion outbreak rate ([3]; Table 5, tobacco, 10 ppm) | Lesion outbreak rate ([3]; Table 5, tobacco, 100 ppm) | Lesion outbreak rate ([3]; Table 6, tobacco, 1 ppm) | Lesion outbreak rate ([3]; Table 6, tobacco, 10 ppm) | Lesion outbreak rate ([3]; Table 6, tobacco, 100 ppm) | Anthracnose on the leaves of cucumber as compared with the non-treated group [4] | Expression of the genes of PR1, PR4, PR10, beta-1,3-glucanase, chitonase and peroxidase [5] | Lesion outbreak rate ([6]; 0.1 ppm) | Lesion outbreak rate ([6]; 1.0 ppm) | other results |
| --- | --- | --- | --- | --- | --- | --- | --- | --- | --- | --- |
| CSC(=O)c1cccc2nnsc12 [BTH, benzo-1,2,3-thiadiazole-7-carbothio acid S-methyl ester, reference compound] | 25% | 25% | 100% | 100% | 100% |  |  |  |  | Lesion outbreak rate [1]: 17 area %; PR1a GUS expression ([2]; 0.1 mM): 324,000 nM MU/10 mg FW/1 hr; Lesion outbreak rate ([3]; Table 3, tobacco, 1 ppm): 90%; Lesion outbreak rate ([3]; Table 3, tobacco, 10 ppm): 90%; Lesion outbreak rate ([3]; Table 3, tobacco, 100 ppm): 90%; Lesion outbreak rate ([3]; Table 4, tobacco, 1 ppm): 88%; Lesion outbreak rate ([3]; Table 4, tobacco, 10 ppm): 88%; Lesion outbreak rate ([3]; Table 4, tobacco, 100 ppm): 88% |
| COC(=O)[C@@H]1CCCN1C(=O)[C@H](CSC(c1ccccc1)(c1ccccc1)c1ccccc1)NC(=O)OC(C)(C)C [Compound 61] (Boc-Cys(Trt)-Pro-OMe) | 20% | 16% |  |  |  | hardly found |  |  |  |  |
| COC(=O)[C@H]1CCCN1C(=O)[C@H](CSC(c1ccccc1)(c1ccccc1)c1ccccc1)NC(=O)OC(C)(C)C [Compound 74] (Boc-Cys(Trt)-[dP]-OMe) |  |  | 25% | 34% | 22% | hardly found |  |  |  | PR1a GUS expression ([2]; 0.1 ppm): 7,800 nM MU/10 mg FW/1 hr; PR1a GUS expression ([2]; 1.0 ppm): 15,000 nM MU/10 mg FW/1 hr; PR1a GUS expression ([2]; 10.0 ppm): 420,000 nM MU/10 mg FW/1 hr; PR1a GUS expression ([2]; 100.0 ppm): 860,000 nM MU/10 mg FW/1 hr |
| CCOC(=O)C(C)NC(=O)C(NC(=O)OC(C)(C)C)C(C)CC (stereo not shown) [Compound 80] |  |  |  |  |  |  | strongly expressed | 14 area % | 8.9 area % |  |
| CCC(C)C(NC(=O)OC(C)(C)C)C(=O)N1CCCC1C(=O)OC (stereo not drawn) [Compound 85] (Boc-Ile-Pro-OMe; configuration not given here) |  |  |  |  |  |  |  | 24 area % | 15 area % | Phytophthora blight (lesion formation) on the leaves and roots as compared with the control group (Phytophthora capsici): significantly suppressed |
| COC(=O)[C@H](Cc1ccccc1)NC(=O)[C@@H](N)CC(=O)O [Compound 89] (H-Asp-Phe-OMe) |  |  |  |  |  |  | strongly expressed | 9.3 area % | 2.3 area % | Effect on suppressing the outbreak of pepper phytophthora blight or bacterial rot as compared with the non-treated control group ([6]; directly sprayed to the leaves, phytophthora blight or bacterial rot): excellent; Lesion formation, pepper phytophthora test ([6]; drench-treated, 1.0 or 10.0 ppm): no the lesion formations; Effect on suppression of the outbreak of pepper phytophthora blight as compared with the control drug BTH ([6]; in vivo): excellent effect; Bacterial rot on pepper leaves as compared with the non-treated group [7]: not found |
